Assay [1] relates to pERK in PSN1 cells. The assay is described as follows: Inhibition of KRas phosphorylation of ERK (Cisbio HTRF pERK assay). Particulars: Homo sapiens, PSN1, 3 h, read-out: Inhibition (HTRF IC50) of KRas-mediated Phosphorylation of ERK, PSN1.
In assay [2] the test system is phospho-ERK in NCI-H460 (Q61H) cells. In words: Inhibition of KRas-mediated phosphorylation of ERK (in-cell western). Particulars: Homo sapiens, NCI-H460, 3 h, 3 hours compound, phospho-ERK normalized to GAPDH. It is filed as cell-based. On the procedure: (§1) Diluted compounds were then added in a final concentration of 0.5% DMSO. After 3 hours, 50 μL of 4.0% formaldehyde was added and the plates incubated at room temperature for 20 minutes. The plates were then dumped and permeabilized with 150 μL of ice cold 100% methanol for 10 minutes.
(§2) The amount of phospho-ERK was determined using an antibody specific for the phosphorylated form of ERK and compared to the amount of GAPDH. […] The plates were incubated overnight at 4° C. The plates were washed 3× with 150 uL PBS+0.1% Tween 20.
(§3) The plates were washed 3× with 150 uL PBS+0.1% Tween 20. Plates were imaged dry on a Li-COR Odyssey CLX plate reader.
(§4) The phospho-ERK (Thr202/Tyr204) signal was normalized to the GAPDH signal for each well and percent of DMSO control values were calculated. IC50 values were generated using a 4-parameter fit of the dose response curve.

Assay [3] deals with phospho-ERK in NCI-H727 (G12V) cells. The assay is described as above. In kind it is cell-based. Conditions: Homo sapiens, NCI-H727, 3 h, 3 hours compound, phospho-ERK normalized to GAPDH. On the procedure:
as §1, §2, §3, §4

Assay [4] has as its system phospho-ERK in AsPC-1 (G12D) cells. The assay is described as above. Particulars: Homo sapiens, ASPC1, 3 h, 3 hours compound, phospho-ERK normalized to GAPDH. In kind it is cell-based. The protocol: as §1, §2, §3, §4
The target in assay [5] is KRas G12R (Homo sapiens, UniProt P01116, G12R). In words: biochemical.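 Note: TR-FRET displacement assay of compound binding to KRas, read after one hour at room temperature, potency from a four-parameter fit of percent-of-control values.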
KRas G12R, sequence (P01116 1-169 isoform P01116-2 G12R): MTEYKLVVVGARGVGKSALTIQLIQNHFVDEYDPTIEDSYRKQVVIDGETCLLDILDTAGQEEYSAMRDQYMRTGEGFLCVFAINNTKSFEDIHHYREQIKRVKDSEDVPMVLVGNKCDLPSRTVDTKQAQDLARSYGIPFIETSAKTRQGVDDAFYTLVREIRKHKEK
Procedure: (§5) The ability of a compound to bind to KRas was measured using a TR-FRET displacement assay. […] After a 60-minute incubation at room temperature, the reaction was measured using a BMG LABTECH CLARIO star Plus via TR-FRET. […] The POC values were fit to a 4-parameter IC50 equation and the IC50 value reported.
Assay [6] has as its system pERK in MKN1 cells. The assay is described as follows: Inhibition of KRas phosphorylation of ERK (Cisbio HTRF pERK assay). Conditions: Homo sapiens, MKN-1, 3 h, read-out: Inhibition (HTRF IC50) of KRas-mediated Phosphorylation of ERK, MKN1. A general note: Time-resolved FRET reads energy transfer from a long-lived donor to a nearby acceptor.
For assay [7], the target named is KRas G12V (Homo sapiens, UniProt P01116, G12V). The assay is described as follows: biochemical.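 Note: KRas binding measured by TR-FRET displacement at room temperature, IC50 fitted from percent of control values.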
KRas G12V, sequence (P01116 1-169 isoform P01116-2 G12V): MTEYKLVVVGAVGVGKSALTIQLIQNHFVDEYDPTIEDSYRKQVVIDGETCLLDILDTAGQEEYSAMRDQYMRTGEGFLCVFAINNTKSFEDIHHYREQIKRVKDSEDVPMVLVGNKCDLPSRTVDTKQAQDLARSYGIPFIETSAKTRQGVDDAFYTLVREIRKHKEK
Procedure: as §5
Assay [8] has as its target KRas G12D (Homo sapiens, UniProt P01116, G12D). The assay is described as follows: biochemical.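 Note: TR-FRET displacement binding assay on KRas, read after a one-hour incubation at room temperature, IC50 fitted from percent-of-control values.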
Procedure: as §5

The results in this text go back to patent US12398154B2, “Azaquinazoline pan-KRas inhibitors” (Mirati Therapeutics, Inc., priority 2020, dated 2025).

Some results are limits rather than exact numbers.

One may read the IC50 as the point on the concentration scale where inhibition reaches its midpoint.

KRas G12D, sequence (P01116 1-169 isoform P01116-2 G12D): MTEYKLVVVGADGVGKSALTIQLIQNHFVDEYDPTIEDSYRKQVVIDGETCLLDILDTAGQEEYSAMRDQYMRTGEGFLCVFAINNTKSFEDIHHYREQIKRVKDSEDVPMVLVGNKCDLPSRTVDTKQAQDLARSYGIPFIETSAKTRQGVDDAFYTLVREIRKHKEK

`CCc1c(F)ccc2cc(O)cc(-c3ncc4c(N5CCC[C@@H](O)[C@H]5C)nc(OC[C@@]56CCCN5C[C@H](F)C6)nc4c3F)c12` [Example 181]: the IC50 in assay [1] worked out at 6.7 µM; in assay [2], 584 nM; in assay [3], 1610 nM; in assay [4], 1540 nM; in assay [5] it was 0.01 µM; in assay [6], 0.139 µM. The IC50 in assay [7] was found to be 0.017 µM; in assay [8], 0.029 µM.

Take `CCc1c(F)ccc2cc(O)cc(-c3ncc4c(N5CCC[C@@H](O)[C@@H]5C)nc(OC[C@@]56CCCN5C[C@H](F)C6)nc4c3F)c12` [Example 185]: the IC50 in assay [1] came out at 4.84 µM; in assay [2], 424 nM; in assay [3] it was 481 nM; in assay [4], 306 nM; in assay [5] it was 0.009 µM; in assay [6], 0.017 µM. Besides, the IC50 amounted to 0.009 µM in assay [7] and 0.011 µM in assay [8].

In the case of `CCc1c(F)ccc2cc(O)cc(-c3ncc4c(N5C[C@H](C)C[C@@H](O)C5)nc(OC[C@@]56CCCN5C[C@H](F)C6)nc4c3F)c12` [Example 187], the IC50 was at least 10 µM in assay [1]; 133 nM in assay [2]; 550 nM in assay [3]; 470 nM in assay [4]; 0.006 µM in assay [5]; 0.038 µM in assay [6]. Besides, the values for the IC50 in assay [7] and in assay [8] were 0.005 µM and 0.012 µM, respectively.

Regarding `CCc1c(F)ccc2cc(O)cc(-c3ncc4c(N5CC[C@H](C)[C@@H](O)C5)nc(OC[C@@]56CCCN5C[C@H](F)C6)nc4c3F)c12` [Example 188], the IC50 in assay [1] was at least 10 µM; in assay [2], 478 nM; in assay [3], 2140 nM; in assay [4] it was 2070 nM; in assay [5], 0.023 µM; in assay [6], 0.077 µM. Also, the IC50 in assay [7] stood at 0.019 µM; in assay [8] it was 0.048 µM.

As for `CCc1c(F)ccc2cc(O)cc(-c3ncc4c(N5CC[C@@H](C)[C@@H](O)C5)nc(OC[C@@]56CCCN5C[C@H](F)C6)nc4c3F)c12` [Example 189], the IC50 in assay [1] was 5.54 µM; in assay [2], 377 nM; in assay [3], 1430 nM; in assay [4], 1240 nM; in assay [5] it was 0.018 µM; in assay [6] it was 0.029 µM. The figures for the IC50 in assay [7] and in assay [8] were 0.018 µM and 0.032 µM, respectively.

Regarding `CCc1c(F)ccc2cc(O)cc(-c3ncc4c(N5CCC(F)(F)C(O)C5)nc(OC[C@@]56CCCN5C[C@H](F)C6)nc4c3F)c12` (stereo partly drawn) [Example 191], the IC50 is 5.85 µM in assay [1]; 230 nM in assay [2]; 714 nM in assay [3]; 665 nM in assay [4]; 0.004 µM in assay [5]; 0.015 µM in assay [6]. In addition, the IC50 was found to be 0.004 µM in assay [7] and 0.009 µM in assay [8].

Regarding `CCc1c(F)ccc2cc(O)cc(-c3ncc4c(N5C[C@H](O)C[C@H](F)C5)nc(OC[C@@]56CCCN5C[C@H](F)C6)nc4c3F)c12` [Example 192], the IC50 in assay [1] was 7.34 µM; in assay [2], 51 nM; in assay [3], 191 nM; in assay [4], 90 nM; in assay [5] it was at most 0.002 µM; in assay [6] it was 0.004 µM. Besides, the IC50 in assay [7] and in assay [8] was at most 0.002 µM throughout.

With `CCc1c(F)ccc2cc(O)cc(-c3ncc4c(NCCCc5cccnc5)nc(OC[C@@]56CCCN5C[C@H](F)C6)nc4c3F)c12` [Example 198, 5-ethyl-6-fluoro-4-(8-fluoro-2-(((2R,7aS)-2-fluorohexahydro-1H-pyrrolizin-7a-yl)methoxy)-4-((3-(pyridin-3-yl)propyl)amino)pyrido[4,3-d]pyrimidin-7-yl)naphthalen-2-ol], the IC50 in assay [1] is at least 10 µM; in assay [2], 803 nM; in assay [3], 1750 nM; in assay [4] it was 2690 nM; in assay [5], 0.008 µM; in assay [6] it was 0.183 µM. For the same compound, the IC50 in assay [7] worked out at 0.009 µM; in assay [8], 0.086 µM.

Turning to `CCc1c(F)ccc2cc(O)cc(-c3ncc4c(NCc5ccc(=O)n(C)c5)nc(OC[C@@]56CCCN5C[C@H](F)C6)nc4c3F)c12` [Example 199], the IC50 in assay [1] is at least 10 µM; in assay [2] it was 314 nM; in assay [3] it was 798 nM; in assay [4] it was 1320 nM; in assay [5], at most 0.002 µM; in assay [6], 0.007 µM. For the same compound, the IC50 in assay [7] is at most 0.002 µM; in assay [8], 0.003 µM.

Regarding `NS(=O)(=O)CC1CCCN(c2nc(OC[C@@]34CCCN3C[C@H](F)C4)nc3c(F)c(-c4cc(O)cc5ccc(F)c(F)c45)ncc23)C1` (stereo partly drawn) [Example 203], the IC50 in assay [1] was 3.71 µM; in assay [2] it was 758 nM; in assay [3], 1270 nM; in assay [4] it was 8010 nM; in assay [5] it was at most 0.002 µM; in assay [6] it was 0.035 µM. Also, the IC50 in assay [7] and in assay [8] was at most 0.002 µM in each case.

For the compound `CCc1c(F)ccc2cc(O)cc(-c3ncc4c(N5CCC[C@]6(CNC(=O)C6)C5)nc(OC[C@]56CCCN5C[C@@H](O)C6)nc4c3F)c12` [Example 206], the IC50 in assay [1] is at least 10 µM; in assay [2] it was 3380 nM; in assay [3], 3330 nM; in assay [4], 6960 nM; in assay [5] it was at most 0.002 µM; in assay [6], 0.034 µM. The IC50 in assay [7] and in assay [8] was at most 0.002 µM in each case.

With `CCc1c(F)ccc2cc(O)cc(-c3ncc4c(Nc5cnn(-c6ccncc6)c5)nc(OC[C@@]56CCCN5C[C@H](F)C6)nc4c3F)c12` [Example 297, 5-ethyl-6-fluoro-4-(8-fluoro-2-(((2R,7aS)-2-fluorohexahydro-1H-pyrrolizin-7a-yl)methoxy)-4-((1-(pyridin-4-yl)-1H-pyrazol-4-yl)amino)pyrido[4,3-d]pyrimidin-7-yl)naphthalen-2-ol], the IC50 in assay [1] is at least 10 µM; in assay [2], 660 nM; in assay [3], 450 nM; in assay [4], 3430 nM; in assay [5], 0.009 µM; in assay [6] it was 0.154 µM. Besides, the IC50 in assay [7] was at most 0.002 µM; in assay [8], 0.054 µM.

Turning to `CCc1c(F)ccc2cc(O)cc(-c3ncc4c(N5CCC[C@@](C)(O)C5)nc(OC[C@]56CCCN5[C@@H](CO)CC6)nc4c3F)c12` [Example 303, (R)-1-(7-(8-ethyl-7-fluoro-3-hydroxynaphthalen-1-yl)-8-fluoro-2-(((3R,7aR)-3-(hydroxymethyl)hexahydro-1H-pyrrolizin-7a-yl)methoxy)pyrido[4,3-d]pyrimidin-4-yl)-3-methylpiperidin-3-ol], the IC50 in assay [1] is at least 10 µM; in assay [2], 4120 nM; in assay [3] it was 3690 nM; in assay [4] it was 3290 nM; in assay [5], at most 0.002 µM; in assay [6] it was 0.358 µM. For the same compound, the IC50 in assay [7] and in assay [8] was at most 0.002 µM each time.

`CCc1c(F)ccc2cc(O)cc(-c3ncc4c(N5CCC[C@@](C)(O)C5)nc(OC[C@@]56CCCN5[C@H](CO)CC6)nc4c3F)c12` [Example 304, (R)-1-(7-(8-ethyl-7-fluoro-3-hydroxynaphthalen-1-yl)-8-fluoro-2-(((3S,7aS)-3-(hydroxymethyl)hexahydro-1H-pyrrolizin-7a-yl)methoxy)pyrido[4,3-d]pyrimidin-4-yl)-3-methylpiperidin-3-ol]: the IC50 was at least 10 µM in assay [1]; 804 nM in assay [2]; 2580 nM in assay [3]; 1370 nM in assay [4]; at most 0.002 µM in assay [5]; 0.029 µM in assay [6]. The IC50 in assay [7] and in assay [8] was at most 0.002 µM each time.

In the case of `CCc1c(F)ccc2cc(O)cc(-c3ncc4c(N5CCC[C@@](C)(O)C5)nc(OC[C@@]56CCCN5C[C@H](O)C6)nc4c3F)c12` [Example 311, (2R,7aS)-7a-(((7-(8-ethyl-7-fluoro-3-hydroxynaphthalen-1-yl)-8-fluoro-4-((R)-3-hydroxy-3-methylpiperidin-1-yl)pyrido[4,3-d]pyrimidin-2-yl)oxy)methyl)hexahydro-1H-pyrrolizin-2-ol], the IC50 in assay [1] was at least 10 µM; in assay [2], 501 nM; in assay [3], 2600 nM; in assay [4] it was 738 nM; in assay [5] it was at most 0.002 µM; in assay [6], 0.015 µM. In addition, the IC50 in assay [7] and in assay [8] was at most 0.002 µM in each case.
